Data on ten compounds can be found in publication PMC6530213, “Monitoring flux in signalling pathways through measurements of 4EBP1-mediated eIF4F complex assembly” (BMC Biology, 2019).

For data set [1], the system named is eIF4E:eIF4G^604–646 complex. The data set is described as follows: NanoBit eIF4E:eIF4G^604–646 protein complementation assay in HEK293 cells. Type of data set: cell-based. Particulars: for Extent of disruption of NanoBit signal / eIF4F complex: HEK293, relative to eIF4G YLL-LgBit binding control or maximal dose of Torin. The procedure: (§1) Opaque 96-well plates were seeded with 20,000 HEK293 cells per well in DMEM and 10% FCS. Transfections in 96-well plate format were performed using FUGENE6 (Roche) with 100 ng of the indicated plasmid vectors per well as outlined in the manufacturer’s instructions (Fig. 1). Twenty-four hours after transfection, the medium was replaced with 100 μl of Opti-MEM I cell media containing 0% FCS with no added red phenol (Thermo Fisher Scientific) and luminescence activity assayed (as outlined in “NanoBit and cell viability experiments” section). Transfections utilising 4EBP1 constructs were performed with either 50 ng of the indicated construct or empty vector.
(§2) Twenty-four hours prior to transfection, cells (HEK293, PANC-1 or PC-3) were seeded at a cell density of 800,000 cells per well of a six-well plate (Thermo Fisher Scientific). Transfections in six-well plates were performed using Lipofectamine 3000 (Thermo Fisher Scientific) with 3 μg of the indicated plasmid vectors per well according to the manufacturer’s instructions. For knockdown experiment, siRNA Ctrl or 4EBP1 at a final concentration of 100 nM were included in the transfection mixture. Transfections utilising GFP and GFP-MYC contained 1 μg of each vector or empty vector, respectively. In the case of transfections utilising any of the 4EBP1 constructs described, only 0.5 μg of each vector or empty vector was used, respectively. After a 24- or 48-h (as indicated in the figure legends) incubation period, the medium was removed and cells were washed with PBS saline. Cells were then either lysed directly for immunoprecipitation experiments or were trypsinised and re-suspended in Opti-MEM media with 0% FCS to perform NanoBit and cell viability experiments in a 96-well format.
(§3) Either HEK293, PC-3 or PANC-1 cells were spun down at 1000 rpm for 5 min at room temperature. Supernatant was then discarded, and cells re-suspended to a density of to 220,000 cells per millilitre in Opti-MEM I cell media containing 0% FBS with no added red phenol. Then 90 μl of the cell re-suspension was added to the wells of a white opaque 96-well plate. Compounds were then titrated onto the 96-well plate using a suitable twofold dilution series from a 10× stock solution containing 10% v/v DMSO. Control wells were also treated with a 10% DMSO only stock solution to yield a final residual DMSO concentration of 1% v/v. The 96-well plates were then incubated for 4 h at 37 °C, with 5% CO2. Wells were then treated with a solution of Nano-Glo live substrate, which was prepared as per the manufacturer’s instructions. The plates were then shaken for 1 min at 22 °C and luminescence assessed after additional 50 min using an Envision Multi-Plate reader (Perkin-Elmer). Plates were then multiplexed with CellTiter-GLO 2.0 reagent (PROMEGA) and cellular viability determined according to the manufacturer’s instruction. NanoBit titration data was used to determine IC50 values for drug potency by fitting 4 parameter logistic curves using GraphPad Prism 7.0.

Data set [2] concerns eIF4E:eIF4G^604–646 complex. The data set is described as follows: NanoBit eIF4E:eIF4G^604–646 protein complementation assay in PANC-1 cells. Type of data set: cell-based. The procedure: as §2
as §3, with “Wells were then treated with a solution of Nano-Glo live substrate, which was prepared as per the manufacturer’s instructions.” left out, “NanoBit titration data was used to determine IC50 values for drug potency by fitting 4 parameter logistic curves using GraphPad Prism 7.0.” left out

Data set [3] relates to eIF4E:eIF4G^604–646 complex. The data set is described as follows: NanoBit eIF4E:eIF4G^604–646 protein complementation assay in PC-3 cells. Type of data set: cell-based. Particulars: for Activity in NanoBit system: PC-3 cells, 4 h. The procedure: as §2, §3
The subject of data set [4] is eIF4E S209 phosphorylation. The data set is described as follows: AlphaScreen Surefire eIF4E S209 phosphorylation assay in PANC-1 cells. Type of data set: cell-based. As to the method:
(§4) Ninety-six-well plates were seeded at 30,000 cells per well with non-transfected PC-3, PANC-1 or HKEK293 cells in DMEM with 10% FCS and incubated overnight. Cells were then washed with PBS and the media replaced with OPTI-MEM containing no serum. Cells were then treated with the indicated compounds. Controls were performed with DMSO vehicle treatments. Four hours post treatments, cells were lysed with 50 μl of passive lysis buffer (PerkinElmer) for 15 min and 10 μl of lysate from each well was transferred into a white bottom 384-well plate. GAPDH and pS209 eIF4E levels were assessed according to the manufacturer’s instructions (PerkinElmer) for each sample. Luminescence was measured using an Envision Multiplate reader (PerkinElmer).

For data set [5], the system named is eIF4E S209 phosphorylation. Put plainly: AlphaScreen Surefire eIF4E S209 phosphorylation assay in PC-3 cells. Type of data set: cell-based. Particulars: PC3 cells, 4E-BP1 protein levels high, normalised to GAPDH, read-out: pEIF4E SureFire (IC50). As to the method: as §4
A further data set relates to HEK293 cells. Put plainly: Cell viability by intracellular ATP (CellTiter-GLO) in HEK293 cells. It is filed as cell-based. Particulars: HEK293, 4-h treatment. As to the method:
as §3

For data set [6], the target named is T1, eIF4E:eIF4G^604–646 complex (Homo sapiens, UniProt P06730).
T1 construct: linked either to full-length eIF4E or the eIF4G^604–646 fragment; expressed in transfected cells; host or cells: HEK293
The data set is described as follows: NanoBit eIF4E:eIF4G^604–646 protein complementation assay in HEK293 cells. Type of data set: cell-based. Particulars: HEK293, 4 h, normalised to DMSO and to full-length NanoLuc counter-screen; read-out: IC50, NanoBit eIF4E:eIF4G^604–646 signal. As to the method: as §1, §2, §3

The test system of data set [7] is full-length NanoLuc luciferase. Put plainly: Full-length NanoLuc luciferase counter-screen in HEK293 cells. Type of data set: cell-based. As to conditions: HEK293 transfected with full-length NanoLuc.
For the next data set, the target named is eIF4E-eIF4G interface. Particulars: published value; read-out: in vitro Kd; cited from earlier work.
In another data set the test system is PC-3 cells. Put plainly: Cell viability by intracellular ATP (CellTiter-GLO) in PC-3 cells. It is filed as cell-based. Particulars: NanoBit co-transfected PC-3 cells, 4 h. The procedure:
as §3

Setting [8] is: HEK293, 4 h treatment, read-out: IC50, NanoBit eIF4E:eIF4G^604–646 signal.

T1 sequence (P06730 2-217, one chain of several): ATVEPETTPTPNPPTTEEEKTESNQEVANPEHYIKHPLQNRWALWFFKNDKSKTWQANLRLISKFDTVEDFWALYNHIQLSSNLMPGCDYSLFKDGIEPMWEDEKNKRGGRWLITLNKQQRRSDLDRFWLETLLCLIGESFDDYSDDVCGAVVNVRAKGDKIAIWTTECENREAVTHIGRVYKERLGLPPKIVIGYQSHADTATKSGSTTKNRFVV

As for `CCC(=O)N1CCN(c2ccc(-n3c(=O)ccc4cnc5ccc(-c6cnc7ccccc7c6)cc5c43)cc2C(F)(F)F)CC1` [Torin], the IC50 in [1] (setting [8]) was 60 ± 10 nM; in data set [2] (4E-BP1 protein levels low, read-out: NanoBit eIF4E:4G (IC50)) it was 130 ± 30 nM; in data set [3] (PC3 cells, 4E-BP1 protein levels high, read-out: NanoBit eIF4E:4G (IC50)), 20 ± 10 nM; in data set [5] (Homo sapiens, PC-3) it was 100 ± 20 nM. In addition, the “pEIF4E SureFire (IC50, μM)” value in data set [4] (PANC cells, 4E-BP1 protein levels low, normalised to GAPDH) is recorded as “No Inhibition”. Moreover, the “Effect on cell viability (intracellular ATP)” value (from here on “Effect … (intracellular ATP)”) in the data set on HEK293 cells is recorded as “neither Rapamycin, Torin nor PP242 affected the cells adversely”.

Regarding `CC(C)NC[C@@H](C(=O)N1CCN(c2ncnc3c2[C@H](C)C[C@H]3O)CC1)c1ccc(Cl)cc1` [Ipasertib], the IC50 in data set [1] (setting [8]) stood at 170 ± 24 nM.

Take `O=C(O)c1ccc(N2C(=O)/C(=C\c3ccc(-c4ccc([N+](=O)[O-])cc4)o3)C=C2c2ccccc2)cc1` [4E1RCat]: in [6], the IC50 stood at 600 ± 150 nM. For the same compound, in data set [1], the “Extent of disruption of NanoBit signal / eIF4F complex” value is reported as “neither achieved complete disruption of the signal”. Further, the “Effect … (intracellular ATP)” value with HEK293 cells is on record as “observed to have an effect”. Moreover, the “Inhibition of full-length luciferase signal (counter-screen)” value in data set [7] was “Non-specific inhibition of the luciferase signal”. Moreover, the Kd at eIF4E-eIF4G interface was 3200 nM.

As to `O=C(O)C(Cc1ccccc1[N+](=O)[O-])=NNc1nc(-c2ccc(Cl)c(Cl)c2)cs1` (mixture of isomers) [4EGi-1], the “Extent of disruption of NanoBit signal / eIF4F complex” value in data set [1] is “neither achieved complete disruption of the signal”. Also, in the data set on HEK293 cells, the “Effect … (intracellular ATP)” value is on record as “only 4ER1Cat was observed to have an effect”. For the same compound, in data set [7], the “Inhibition of full-length luciferase signal (counter-screen)” value is recorded as “Non-specific inhibition of the luciferase signal”. In addition, the Kd at eIF4E-eIF4G interface is 25000 nM.

With `Nc1ncnc2n[nH]c(Nc3ccc(F)cc3)c12` [CGP57380], in data set [1] (HEK293, CGP57380 at constant concentrations, 4 h), the “Effect on NanoBit luminescence signal in combination with Ipasertib versus Ipasertib alone” value is “did not lead to a larger decrease of the luminescence signal”. The “NanoBit eIF4E:4G (IC50, μM)” value in data set [2] (4E-BP1 protein levels low) is “No Inhibition”; in data set [3] (PC3 cells, 4E-BP1 protein levels high) it was “No Inhibition”. Besides, in [3], the “Activity in NanoBit system” value is “no decrease in the luminescence signal”. Further, the “Decrease in ability to prevent phosphorylation of eIF4E, PANC1 versus PC-3” value in data set [4] (PANC1 cells compared with PC-3) is recorded as “twofold”. Moreover, the IC50 came out at 6200 ± 1300 nM in data set [4] (PANC cells, 4E-BP1 protein levels low, normalised to GAPDH, read-out: pEIF4E SureFire (IC50)) and 3000 ± 1700 nM in [5]. For the same compound, in the data set with PC-3 cells, the “Effect on cell viability” value was “no decrease in the luminescence signal or decrease in cell viability”.

On to `CC(C)n1nc(-c2cc3cc(O)ccc3[nH]2)c2c(N)ncnc21` [PP242], for which the “Effect … (intracellular ATP)” value in the data set with HEK293 cells was “neither Rapamycin, Torin nor PP242 affected the cells adversely”.

Regarding `CO[C@H]1C[C@@H]2CC[C@@H](C)[C@@](O)(O2)C(=O)C(=O)N2CCCC[C@H]2C(=O)O[C@H]([C@H](C)C[C@@H]2CC[C@@H](O)[C@H](OC)C2)CC(=O)[C@H](C)/C=C(\C)[C@@H](O)[C@@H](OC)C(=O)[C@H](C)C[C@H](C)/C=C/C=C/C=C/1C` [Rapamycin], the IC50 in [1] (setting [8]) amounted to 6880 ± 880 nM. Besides, the “Effect … (intracellular ATP)” value with HEK293 cells is recorded as “neither Rapamycin, Torin nor PP242 affected the cells adversely”.

As for `O=C(Nc1ccc2[nH]nc(-c3ccncc3)c2c1)[C@@H]1CCN(CC(=O)N2CCN(c3ccc(-c4ncccn4)cc3)CC2)C1` [SCH772984], the IC50 in [1] (setting [8]) worked out at 2600 ± 1800 nM. Further, the “Effect on eIF4F disruption in combination with Ipasertib titration” value in data set [1] (HEK293, SCH-772984 constant at 1 μM) is listed as “additive effect”.

For `Cn1c(=O)n(-c2ccc(C(C)(C)C#N)cc2)c2c3cc(-c4cnc5ccccc5c4)ccc3ncc21` [BEZ235], the IC50 in data set [1] (HEK293, 4 h, read-out: apparent IC50, NanoBit eIF4E:eIF4G^604–646 signal) worked out at 8 ± 0.7 nM. Moreover, in data set [1] (HEK293, si4EBP1 versus siCtrl), the “Attenuation of potency by siRNA-mediated knockdown of 4EBP1” value is on record as “substantially reduced”. The “Extent of disruption of NanoBit signal / eIF4F complex” value in [1] is “achieved maximal inhibition of eIF4F activity”. In addition, the “Decrease in potency on overexpression of GFP-MYC” value in data set [1] (HEK293 co-transfected with GFP-MYC versus GFP control) is reported as “over an order of magnitude”. In addition, the “Activity in NanoBit system” value in [2] (4 h) is listed as “dramatically attenuated”; in data set [3], “mid-nanomolar range”. Also, the “Effect of siRNA 4EBP1 knockdown on activity” value in [3] (PC3 cells, si4EBP1 versus siCtrl) is “strongly attenuated”.

Take `CC(C)Nc1cc(-c2c[nH]c(C(=O)N[C@H](CO)c3cccc(Cl)c3)c2)c(Cl)cn1` [Ulixertinib]: in [1] (setting [8]), the IC50 is 4700 ± 1800 nM.
